Experimental data as given in patent US20140065223A1, “PERFLUORINATED COMPOUNDS FOR THE NON-VIRAL TRANSFER OF NUCLEIC ACIDS” (priority 2011, published 2014).

Test system: Cells of line HEK 293
Assay: Detection of absorption into the cell: transfection of HEK 293 cells, microscopy / confocal microscopy of rhodamine coloration
Format: cell-based
Description: To follow the path of the perfluorinated nucleic acids into the cell, the following construct with rhodamine linking was used: The compound was first dissolved in tetrahydrofuran (THF), and this solution was subsequently titrated in isopropanol. […] Cells of line HEK 293 were used as cell culture Transfection was performed one day after cell enlargement. As a control, a transfection was performed with pure rhodamine particles of equivalent rhodamine concentration to test the perfluorinated nucleic acids. […] One explanation of this is possible that the rhodamine is bound to the PFC particle in the perfluorinated nucleic acids and sinks to the bottom as a small particle, whereas the dye is completely dissolved in the medium with pure rhodamine. […] The endosomes and lysosomes filled with perfluorinated nucleic acids were detected throughout the cell cytoplasm.

Substance: rhodamine [pure rhodamine]
- coloration of the cells (20 minutes after transfection): no defined coloration could be seen
- coloration of the cells (24 hours after transfection): substantially weaker and diffuse in comparison on the cell surface instead of in the cytoplasm and granular
